Laboratory results taken from ChEMBL document CHEMBL1201862, “PubChem BioAssay data set” (2004).
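These data come from cells grown in 96-well plates and exposed to compound for 48 hours at five concentrations. At the GI50, growth is halved.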 Activity calls are given as the source filed them. No stated cut-off is given here; in the data, active = GI50 up to about 1.1 µM and inactive = higher.

Key:
Assay in all cases: growth of human tumour cells (NCI), 48 h
ACHN = test system: ACHN
MDA-MB-231 = test system: MDA-MB-231
HOP-92 = test system: HOP-92
HCC 2998 = test system: HCC 2998
MCF7 = test system: MCF7
DU-145 = test system: DU-145
NCI-H460 = test system: NCI-H460
PC-3 = test system: PC-3
CCRF-CEM = test system: CCRF-CEM
MDA-MB-435 = test system: MDA-MB-435
SR = test system: SR
SF-295 = test system: SF-295
K562 = test system: K562
NCI/ADR-RES = test system: NCI/ADR-RES
XF498 = test system: XF498
M19-MEL = test system: M19-MEL
DMS-114 = test system: DMS-114
DMS-273 = test system: DMS-273
DLD-1 = test system: DLD-1
HOP-18 = test system: HOP-18

Row | SMILES | GI50 (ACHN) | GI50 (MDA-MB-231) | GI50 (HOP-92) | GI50 (HCC 2998) | GI50 (MCF7) | GI50 (DU-145) | GI50 (NCI-H460) | GI50 (PC-3) | GI50 (CCRF-CEM) | GI50 (MDA-MB-435) | GI50 (SR) | GI50 (SF-295) | GI50 (K562) | GI50 (NCI/ADR-RES) | GI50 (XF498) | GI50 (M19-MEL) | GI50 (DMS-114) | GI50 (DMS-273) | GI50 (DLD-1) | GI50 (HOP-18)
1 | Cc1ccc(S(=O)(=O)NNC2Oc3cc4c(cc3C(c3ccccc3O)C2C)OCO4)cc1 (stereo unspecified) | 13.2 µM (inactive) | 16 µM (inactive) | 17.1 µM (inactive) | 16.9 µM (inactive) | 14.9 µM (inactive) | 13 µM (inactive) | 12.1 µM (inactive) | 10.1 µM (inactive) | 10.2 µM (inactive) | 13 µM (inactive) | 13.3 µM (inactive) | 11.6 µM (inactive) | 11.1 µM (inactive) |  |  |  |  |  |  | 
2 | NC(CCOCCP(=O)(O)CCC1C=CC=CC1)C(=O)O (stereo unspecified) | > 100 µM (inactive) | > 100 µM (inactive) | > 100 µM (inactive) | > 100 µM (inactive) | > 100 µM (inactive) | > 100 µM (inactive) | > 100 µM (inactive) | > 100 µM (inactive) | > 100 µM (inactive) | > 100 µM (inactive) | > 100 µM (inactive) | > 100 µM (inactive) | > 100 µM (inactive) | > 100 µM (inactive) |  |  |  |  |  | 
3 | Nc1c(C(=O)Nc2ccc(C3=NCCN3)cc2)cccc1C(=O)Nc1ccc(C2=NCCN2)cc1 |  |  | > 100 µM (inactive) | > 71.6 µM (inactive) | > 100 µM (inactive) |  | > 100 µM (inactive) |  | > 100 µM (inactive) |  |  | > 100 µM (inactive) | > 100 µM (inactive) | > 100 µM (inactive) | > 100 µM (inactive) | > 100 µM (inactive) | > 100 µM (inactive) | > 100 µM (inactive) | > 100 µM (inactive) | > 100 µM (inactive)
4 | Nc1nc(N)c2c(CCc3ccc(C(=O)N[C@@H](CCC(=O)O)C(=O)O)cc3)ccnc2n1 | < 0.0236 µM (active) | > 100 µM (inactive) | 1.21 µM (inactive) | < 0.01 µM (active) | < 0.01 µM (active) | 0.055 µM (active) | < 0.01 µM (active) | 17.7 µM (inactive) |  | < 0.01 µM (active) |  | 0.148 µM (active) | < 0.01 µM (active) | < 0.0211 µM (active) |  |  |  |  |  | 
5 | CC(=O)O[C@H]1[C@@H](OC(C)=O)C(C)(C)/C=C/[C@H](C)C(=O)[C@@]2(OC(C)=O)C[C@@](C)(OC(C)=O)[C@H](OC(C)=O)[C@@H]2[C@H]2OC(=O)CC[C@@]2(OC(=O)c2ccccc2)[C@@H]1OCC(C)C | 15.6 µM (inactive) | > 100 µM (inactive) | 0.977 µM (active) | 19.5 µM (inactive) | 37 µM (inactive) | 97.3 µM (inactive) | 4.1 µM (inactive) | 17.5 µM (inactive) | 11.2 µM (inactive) | 8.39 µM (inactive) |  | 3.63 µM (inactive) | 4.51 µM (inactive) | 69 µM (inactive) |  |  |  |  |  | 
6 | COc1cc2c(cc1Oc1c(Oc3c(O)c(OC)cc4c3C(CC(C)C)N(C)CC4)c(OC)cc3c1C(CC(C)C)N(C)CC3)C(CC(C)C)N(C)CC2 (stereo unspecified) |  |  | 0.465 µM (active) | 0.92 µM (active) | 0.632 µM (active) |  | 0.519 µM (active) |  | 0.8 µM (active) |  |  | 0.904 µM (active) | 1.02 µM (active) | 2.38 µM (inactive) |  | 0.515 µM (active) | 0.838 µM (active) | 1.18 µM (inactive) | 1.76 µM (inactive) | 1.67 µM (inactive)
7 | Cn1c(=O)ccc2c(=O)c3ccccc3oc21 | > 100 µM (inactive) | > 100 µM (inactive) | 67.6 µM (inactive) | > 100 µM (inactive) |  | > 100 µM (inactive) | > 100 µM (inactive) | > 100 µM (inactive) | > 100 µM (inactive) | > 100 µM (inactive) | > 100 µM (inactive) | > 100 µM (inactive) | > 100 µM (inactive) | > 100 µM (inactive) |  |  |  |  |  | 
8 | C=C1CC(OC)(C(O)C(=O)N[C@H]2OCO[C@H]3C2O[C@H](C[C@@H](CO)OC)C(C)(C)C3OC)O[C@H](C)[C@@H]1C (stereo partly specified) |  |  | < 0.00931 µM (active) |  | < 0.00931 µM (active) |  | < 0.00931 µM (active) |  | 0.0125 µM (active) |  |  | < 0.00931 µM (active) | < 0.00931 µM (active) | < 0.00931 µM (active) | < 0.00931 µM (active) | < 0.00931 µM (active) | < 0.00931 µM (active) | < 0.00931 µM (active) | < 0.00931 µM (active) | < 0.00931 µM (active)
9 | O=C(NN1C(=O)C(Cl)C1c1cccc([N+](=O)[O-])c1)c1ccccc1O (stereo unspecified) |  |  | > 100 µM (inactive) |  |  |  | > 100 µM (inactive) |  | 35.6 µM (inactive) |  | > 100 µM (inactive) | > 100 µM (inactive) | > 100 µM (inactive) |  | > 100 µM (inactive) | > 100 µM (inactive) | > 100 µM (inactive) |  |  | 
10 | CC(=O)Nc1ccc(C2=N/C(=C\c3ccc(Cl)c(Cl)c3)C(=O)O2)cc1 | > 100 µM (inactive) |  | 68.9 µM (inactive) | > 100 µM (inactive) |  |  | > 100 µM (inactive) |  | > 100 µM (inactive) |  | 68.9 µM (inactive) | > 100 µM (inactive) | > 100 µM (inactive) |  | 57.5 µM (inactive) | 82.6 µM (inactive) | > 100 µM (inactive) | 80.4 µM (inactive) | 64 µM (inactive) | > 100 µM (inactive)
11 | O=C(/C=C/CC(O)(c1ccccc1)c1ccccc1)Nc1ccccc1Cl | > 100 µM (inactive) |  | > 100 µM (inactive) | > 100 µM (inactive) |  |  | > 100 µM (inactive) |  | > 100 µM (inactive) |  | > 100 µM (inactive) | > 100 µM (inactive) | > 100 µM (inactive) |  |  | > 100 µM (inactive) | > 100 µM (inactive) |  | > 100 µM (inactive) | 
12 | O=C(Nc1ccc([N+](=O)[O-])cc1[N+](=O)[O-])C(=O)C(C(=O)c1ccc2ccccc2c1)C1OC(=O)c2ccccc21 (stereo unspecified) | 25.6 µM (inactive) |  | 17.8 µM (inactive) | 12.4 µM (inactive) |  |  | 13.2 µM (inactive) |  | 9.51 µM (inactive) |  | 0.817 µM (active) | 13.5 µM (inactive) | 14 µM (inactive) |  |  | 12.2 µM (inactive) | 17.9 µM (inactive) | 10.2 µM (inactive) | 27.5 µM (inactive) | 
13 | COc1ccccc1N1C(Cl)C(=O)C1c1c[nH]c2ccccc12 (stereo unspecified) |  |  | > 100 µM (inactive) |  |  |  | > 100 µM (inactive) |  | > 100 µM (inactive) |  | > 100 µM (inactive) | > 100 µM (inactive) | > 100 µM (inactive) |  | > 100 µM (inactive) | > 100 µM (inactive) | > 100 µM (inactive) |  |  | 
14 | CN(c1ccccc1)c1c(-c2ccccc2)c(=O)oc2c1ccc1occc12 |  |  |  | > 100 µM (inactive) | > 100 µM (inactive) |  | > 76.7 µM (inactive) |  | > 100 µM (inactive) |  |  | > 100 µM (inactive) | > 100 µM (inactive) | > 100 µM (inactive) |  | > 100 µM (inactive) | > 100 µM (inactive) | > 100 µM (inactive) | > 100 µM (inactive) | > 100 µM (inactive)
15 | CC1C(NNC(N)=O)Oc2cc3c(cc2C1c1ccccc1O)OCO3 (stereo unspecified) | 39.5 µM (inactive) | 55.7 µM (inactive) | 16.5 µM (inactive) | 84.3 µM (inactive) | 36.8 µM (inactive) | 49.7 µM (inactive) | 38.8 µM (inactive) | 24.5 µM (inactive) | 15.6 µM (inactive) | 20.5 µM (inactive) | 15 µM (inactive) | 27 µM (inactive) | 22.2 µM (inactive) |  |  |  |  |  |  | 
16 | CCCCCCCCCCCCCCCCOCC(COP(=O)([O-])OCC[N+](C)(C)C)OCCCCCCCCCCCCCCCC (stereo unspecified) |  |  | > 100 µM (inactive) | > 100 µM (inactive) |  |  | > 100 µM (inactive) |  | > 100 µM (inactive) |  |  | > 100 µM (inactive) | > 100 µM (inactive) | > 92.9 µM (inactive) | > 100 µM (inactive) | > 100 µM (inactive) | > 100 µM (inactive) | > 100 µM (inactive) | > 100 µM (inactive) | > 100 µM (inactive)
17 | CC(C)(CCCCC(C)(C)NC1=NCCO1)NC1=NCCO1 | > 10 µM (inactive) | > 10 µM (inactive) |  | > 10 µM (inactive) | > 10 µM (inactive) | > 10 µM (inactive) | > 10 µM (inactive) | > 10 µM (inactive) | > 10 µM (inactive) | > 10 µM (inactive) | > 10 µM (inactive) | > 10 µM (inactive) | > 10 µM (inactive) | > 10 µM (inactive) |  |  |  |  |  | 
18 | Cn1c(=O)nc2n(-c3ccc(Cl)cc3Cl)c3ccccc3nc-2c1=O |  |  | 7.21 µM (inactive) | 3.05 µM (inactive) |  |  |  |  |  |  | 19.2 µM (inactive) | 2.33 µM (inactive) | 3.92 µM (inactive) |  | 0.262 µM (active) | 1.02 µM (active) | 1.94 µM (inactive) |  | 3.29 µM (inactive) | 11 µM (inactive)
